Measured values reported in paper PMC11079024, “Identification of a family of species-selective complex I inhibitors as potential anthelmintics” (Nature Communications, 2024).
Like-named read-outs stand apart in the source and are kept apart here.

How the values were obtained:
[1] = target: C. elegans (N2) complex I (NADH:ubiquinone oxidoreductase) (Caenorhabditis elegans, UniProt P24887+Q93873+Q94360); experiment: biochemical; format: biochemical; conditions: for activity at 0.0001 µM / activity at 0.0005 µM / activity at 0.001 µM / activity at 0.0025 µM / activity at 0.005 µM / activity at 0.013 µM / activity at 0.025 µM / activity at 0.063 µM / activity at 0.125 µM / activity at 0.313 µM / activity at 0.625 µM / activity at 1.5 µM / activity at 3 µM / activity at 15 µM / activity at 37.5 µM / activity at 75 µM: read-out: C. elegans mitochondrial complex I activity; for Log IC50 C. elegans complex I: log10 of IC50 in µM
C. elegans (N2) complex I (NADH:ubiquinone oxidoreductase), sequence (Q94360 17-199): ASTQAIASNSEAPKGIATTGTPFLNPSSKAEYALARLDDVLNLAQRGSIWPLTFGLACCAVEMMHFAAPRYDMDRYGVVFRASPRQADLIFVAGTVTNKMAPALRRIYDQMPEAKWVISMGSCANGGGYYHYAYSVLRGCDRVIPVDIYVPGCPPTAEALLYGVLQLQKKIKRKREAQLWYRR
C. elegans (N2) complex I (NADH:ubiquinone oxidoreductase), sequence (P24887 whole entry): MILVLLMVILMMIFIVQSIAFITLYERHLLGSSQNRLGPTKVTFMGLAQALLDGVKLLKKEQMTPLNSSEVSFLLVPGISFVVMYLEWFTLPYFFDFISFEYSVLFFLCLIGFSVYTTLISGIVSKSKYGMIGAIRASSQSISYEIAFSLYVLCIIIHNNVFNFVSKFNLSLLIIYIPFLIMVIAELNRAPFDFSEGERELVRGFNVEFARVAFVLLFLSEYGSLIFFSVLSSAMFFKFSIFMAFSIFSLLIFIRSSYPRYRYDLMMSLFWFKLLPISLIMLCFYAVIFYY
C. elegans (N2) complex I (NADH:ubiquinone oxidoreductase), sequence (Q93873 31-482): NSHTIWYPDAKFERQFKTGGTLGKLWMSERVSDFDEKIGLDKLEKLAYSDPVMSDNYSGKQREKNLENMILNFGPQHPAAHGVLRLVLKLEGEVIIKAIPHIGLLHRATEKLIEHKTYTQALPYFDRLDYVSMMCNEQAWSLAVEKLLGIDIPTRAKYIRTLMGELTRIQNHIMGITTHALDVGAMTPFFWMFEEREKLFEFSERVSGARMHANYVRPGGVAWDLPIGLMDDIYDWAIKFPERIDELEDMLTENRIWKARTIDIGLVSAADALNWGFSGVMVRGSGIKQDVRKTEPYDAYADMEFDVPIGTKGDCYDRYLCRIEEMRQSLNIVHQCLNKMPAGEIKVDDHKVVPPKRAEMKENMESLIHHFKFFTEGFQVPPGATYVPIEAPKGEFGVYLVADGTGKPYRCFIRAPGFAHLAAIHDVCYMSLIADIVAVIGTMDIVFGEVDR
In short: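 Complex I rate: initial linear slope of A600 over 15 min, expressed as percent of solvent control. Triple freeze-thawed mitochondria (0.2 mg/mL) in KPi pH 7.5, BSA 3 mg/mL, NADH 80 μM, decylubiquinone 60 μM, DCIP 160 μM, antimycin A, KCN.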

L1 wild-type C. elegans = conditions: for Screen "Hit": 50 μM
in vitro = conditions: human
[2] = in vitro complex I dose response on C. elegans mitochondria, average of at least two biological replicates, fit in R (DRC), read-out: IC50 C. elegans complex I
[3] = wild-type C. elegans mitochondria, estimated from fitted dose-response curves, read-out: C. elegans Complex I IC50
[4] = Dose 0.2 µM, mean of at least three biological replicates
[5] = HEK293 cells (Flp-In-293), HEK293 viability

Cc1ccccc1OCCCCn1cnc2ccccc21 [Compound 7732524]
remaining activity at 0.0001 µM ([1]; C. elegans mitochondria, 0.0001 µM, Mean, read-out: in vitro complex I activity relative to solvent control): 109%
remaining activity at 0.0005 µM ([1]; C. elegans mitochondria, 0.0005 µM, Mean, read-out: in vitro complex I activity relative to solvent control): 117%
remaining activity at 0.001 µM ([1]; C. elegans mitochondria, 0.001 µM, Mean, read-out: in vitro complex I activity relative to solvent control): 115%
remaining activity at 0.0025 µM ([1]; C. elegans mitochondria, 0.0025 µM, Mean, read-out: in vitro complex I activity relative to solvent control): 106%
remaining activity at 0.005 µM ([1]; C. elegans mitochondria, 0.005 µM, Mean, read-out: in vitro complex I activity relative to solvent control): 87.1%
remaining activity at 0.013 µM ([1]; C. elegans mitochondria, 0.013 µM, Mean, read-out: in vitro complex I activity relative to solvent control): 95.4%
remaining activity at 0.025 µM ([1]; C. elegans mitochondria, 0.025 µM, Mean, read-out: in vitro complex I activity relative to solvent control): 84.9%
remaining activity at 0.063 µM ([1]; C. elegans mitochondria, 0.063 µM, Mean, read-out: in vitro complex I activity relative to solvent control): 60.5%
remaining activity at 0.063 µM ([1]; C. elegans mitochondria, 0.063 µM, single replicate, read-out: in vitro complex I activity relative to solvent control): 65%
remaining activity at 0.125 µM ([1]; C. elegans mitochondria, 0.125 µM, Mean, read-out: in vitro complex I activity relative to solvent control): 45.4%
remaining activity at 0.125 µM ([1]; C. elegans mitochondria, 0.125 µM, single replicate, read-out: in vitro complex I activity relative to solvent control): 44.7%
remaining activity at 0.313 µM ([1]; C. elegans mitochondria, 0.313 µM, Mean, read-out: in vitro complex I activity relative to solvent control): 25.3%
remaining activity at 0.313 µM ([1]; C. elegans mitochondria, 0.313 µM, single replicate, read-out: in vitro complex I activity relative to solvent control): 21%
remaining activity at 0.625 µM ([1]; C. elegans mitochondria, 0.625 µM, Mean, read-out: in vitro complex I activity relative to solvent control): 10.1%
remaining activity at 0.625 µM ([1]; C. elegans mitochondria, 0.625 µM, single replicate, read-out: in vitro complex I activity relative to solvent control): 12.2%
remaining activity at 1.5 µM ([1]; C. elegans mitochondria, 1.5 µM, Mean, read-out: in vitro complex I activity relative to solvent control): 2.78%
remaining activity at 3 µM ([1]; C. elegans mitochondria, 3 µM, Mean, read-out: in vitro complex I activity relative to solvent control): 0.645%
remaining activity at 15 µM ([1]; C. elegans mitochondria, 15 µM, Mean, read-out: in vitro complex I activity relative to solvent control): 0.827%
remaining activity at 37.5 µM ([1]; C. elegans mitochondria, 37.5 µM, Mean, read-out: in vitro complex I activity relative to solvent control): 0.871%
remaining activity at 75 µM ([1]; C. elegans mitochondria, 75 µM, Mean, read-out: in vitro complex I activity relative to solvent control): 6.44%
activity at 0.0001 µM [1]: 130%
activity at 0.0005 µM [1]: 145%
activity at 0.001 µM [1]: 142%
activity at 0.0025 µM [1]: 138%
activity at 0.005 µM [1]: 126%
activity at 0.013 µM [1]: 120%
activity at 0.025 µM [1]: 94.3%
activity at 0.063 µM [1]: 78.2%
activity at 0.125 µM [1]: 53.5%
activity at 0.313 µM [1]: 30.1%
activity at 0.625 µM [1]: 10.6%
activity at 1.5 µM [1]: 3.27%
activity at 3 µM [1]: 1.97%
activity at 15 µM [1]: 1.08%
activity at 37.5 µM [1]: 3.31%
activity at 75 µM [1]: 6.44%
remaining activity at 0.0001 µM ([1]; dose 0.0001 µM, wild-type C. elegans, mean of replicates, read-out: in vitro complex I activity relative to solvent control, Mean): 109%
remaining activity at 0.0005 µM ([1]; dose 0.0005 µM, wild-type C. elegans, mean of replicates, read-out: in vitro complex I activity relative to solvent control, Mean): 117%
remaining activity at 0.001 µM ([1]; dose 0.001 µM, wild-type C. elegans, mean of replicates, read-out: in vitro complex I activity relative to solvent control, Mean): 115%
remaining activity at 0.0025 µM ([1]; dose 0.0025 µM, wild-type C. elegans, mean of replicates, read-out: in vitro complex I activity relative to solvent control, Mean): 106%
remaining activity at 0.005 µM ([1]; dose 0.005 µM, wild-type C. elegans, mean of replicates, read-out: in vitro complex I activity relative to solvent control, Mean): 87.1%
remaining activity at 0.013 µM ([1]; dose 0.013 µM, wild-type C. elegans, mean of replicates, read-out: in vitro complex I activity relative to solvent control, Mean): 95.4%
remaining activity at 0.025 µM ([1]; dose 0.025 µM, wild-type C. elegans, mean of replicates, read-out: in vitro complex I activity relative to solvent control, Mean): 84.9%
remaining activity at 0.063 µM ([1]; dose 0.063 µM, wild-type C. elegans, mean of replicates, read-out: in vitro complex I activity relative to solvent control, Mean): 60.5%
remaining activity at 0.063 µM ([1]; dose 0.063 µM, wild-type C. elegans, single replicate, read-out: in vitro complex I activity relative to solvent control, individual replicate): 65%
remaining activity at 0.125 µM ([1]; dose 0.125 µM, wild-type C. elegans, mean of replicates, read-out: in vitro complex I activity relative to solvent control, Mean): 45.4%
remaining activity at 0.125 µM ([1]; dose 0.125 µM, wild-type C. elegans, single replicate, read-out: in vitro complex I activity relative to solvent control, individual replicate): 44.7%
remaining activity at 0.313 µM ([1]; dose 0.313 µM, wild-type C. elegans, mean of replicates, read-out: in vitro complex I activity relative to solvent control, Mean): 25.3%
remaining activity at 0.313 µM ([1]; dose 0.313 µM, wild-type C. elegans, single replicate, read-out: in vitro complex I activity relative to solvent control, individual replicate): 21%
remaining activity at 0.625 µM ([1]; dose 0.625 µM, wild-type C. elegans, mean of replicates, read-out: in vitro complex I activity relative to solvent control, Mean): 10.1%
remaining activity at 0.625 µM ([1]; dose 0.625 µM, wild-type C. elegans, single replicate, read-out: in vitro complex I activity relative to solvent control, individual replicate): 12.2%
remaining activity at 1.5 µM ([1]; dose 1.5 µM, wild-type C. elegans, mean of replicates, read-out: in vitro complex I activity relative to solvent control, Mean): 2.78%
remaining activity at 3 µM ([1]; dose 3 µM, wild-type C. elegans, mean of replicates, read-out: in vitro complex I activity relative to solvent control, Mean): 0.645%
remaining activity at 15 µM ([1]; dose 15 µM, wild-type C. elegans, mean of replicates, read-out: in vitro complex I activity relative to solvent control, Mean): 0.827%
remaining activity at 37.5 µM ([1]; dose 37.5 µM, wild-type C. elegans, mean of replicates, read-out: in vitro complex I activity relative to solvent control, Mean): 0.871%
remaining activity at 75 µM ([1]; dose 75 µM, wild-type C. elegans, mean of replicates, read-out: in vitro complex I activity relative to solvent control, Mean): 6.44%
IC50 [1, 2]: 140 nM
Log IC50 C. elegans complex I ([1]; C. elegans mitochondria): -0.85 µM
IC50 ([1]; wild-type (N2) mitochondria, read-out: C. elegans Complex I IC50): 140 nM
IC50 ([1]; wild-type (N2) mitochondria, read-out: C. elegans complex I IC50): 104 nM
IC50 [1, 3]: 140 nM
Screen "Hit" (L1 wild-type C. elegans; KCN survival assay, hit = relative motility below 0.25): Y (hits were identified as compounds that reduced relative motility below 0.25 (75% reduction))
C. elegans KCN Survival (L1 wild-type C. elegans; [4]): 1.002
C. elegans KCN Survival (L1 wild-type C. elegans; Dose 0.39 µM): 0.963
C. elegans KCN Survival (L1 wild-type C. elegans; Dose 1.56 µM): 0.887
C. elegans KCN Survival (L1 wild-type C. elegans; Dose 3.13 µM): 0.828
C. elegans KCN Survival (L1 wild-type C. elegans; Dose 6.25 µM): 0.509
C. elegans KCN Survival (L1 wild-type C. elegans; Dose 12.5 µM): 0.007
C. elegans KCN Survival (L1 wild-type C. elegans; Dose 25 µM): 0.000
C. elegans KCN Survival (L1 wild-type C. elegans; Dose 50 µM): 0.000
C. elegans KCN Survival (L1 wild-type C. elegans; Dose 100 µM): 0.000
CC50 at 2 days (in vitro; HEK293 Cell Viability Assay LC50, HEK293 cells, estimated from fitted dose-response curves, mean of at least two biological replicates): 49900 nM
viability at 2 days, 3.13 µM (in vitro; [5]): 100%
viability at 2 days, 6.25 µM (in vitro; HEK293 cells (Flp-In-293), HEK293 viability, Dose 6.25 µM): 100%
viability at 2 days, 12.5 µM (in vitro; [5]): 100%
viability at 2 days, 25 µM (in vitro; [5]): 93.2%
viability at 2 days, 50 µM (in vitro; [5]): 48.1%
viability at 2 days, 100 µM (in vitro; [5]): 13.7%

Cc1ccccc1OCCCn1c(C)nc2ccccc21 [Compound 7916923]
activity at 0.0001 µM [1]: 94.5%
activity at 0.0005 µM [1]: 93.6%
activity at 0.001 µM [1]: 94.8%
activity at 0.0025 µM [1]: 99.1%
activity at 0.005 µM [1]: 96.8%
activity at 0.013 µM [1]: 102%
activity at 0.025 µM [1]: 94.3%
activity at 0.063 µM [1]: 89.3%
activity at 0.125 µM [1]: 86.3%
activity at 0.313 µM [1]: 78.5%
activity at 0.625 µM [1]: 65.6%
activity at 1.5 µM [1]: 42.6%
activity at 3 µM [1]: 27.6%
activity at 15 µM [1]: 7.28%
activity at 37.5 µM [1]: 4.39%
activity at 75 µM [1]: 4.47%
IC50 [1, 2]: 1170 nM
Log IC50 C. elegans complex I ([1]; C. elegans mitochondria): 0.07 µM
IC50 [1, 3]: 1170 nM
Screen "Hit" (L1 wild-type C. elegans; hit = relative motility below 0.25 3 hours after removal of KCN): Y (hits were identified as compounds that reduced relative motility below 0.25 (75% reduction))
C. elegans KCN Survival (L1 wild-type C. elegans; [4]): 0.930
C. elegans KCN Survival (L1 wild-type C. elegans; Dose 0.39 µM): 1.083
C. elegans KCN Survival (L1 wild-type C. elegans; Dose 1.56 µM): 1.052
C. elegans KCN Survival (L1 wild-type C. elegans; Dose 3.13 µM): 0.985
C. elegans KCN Survival (L1 wild-type C. elegans; Dose 6.25 µM): 0.888
C. elegans KCN Survival (L1 wild-type C. elegans; Dose 12.5 µM): 0.491
C. elegans KCN Survival (L1 wild-type C. elegans; Dose 25 µM): 0.124
C. elegans KCN Survival (L1 wild-type C. elegans; Dose 50 µM): 0.136
C. elegans KCN Survival (L1 wild-type C. elegans; Dose 100 µM): 0.168
CC50 at 2 days (in vitro): 45500 nM
viability at 2 days, 3.13 µM (in vitro; [5]): 84.6%
viability at 2 days, 12.5 µM (in vitro; [5]): 95.2%
viability at 2 days, 25 µM (in vitro; [5]): 73.1%
viability at 2 days, 50 µM (in vitro; [5]): 41.6%
viability at 2 days, 100 µM (in vitro; [5]): 9.6%
viability (in vitro; HEK293 viability, Dose 6.25 µM): 94.9%
